Calls of active or inactive are those of the source. The calls are words filed in the database; no cut-off is given here.
Key:
[1] = species on record: Cavia porcellus; assay: Inotropic activity evaluated in vitro in spontaneously beating guinea pig atria;IA-Inactive; type: functional
[2] = test system: Mus musculus; assay: Antithrombotic activity after oral administration in mouse was measured as protection vs control percent; type: functional
[3] = test system: Rattus norvegicus; assay: The dose (administered orally) that lowered blood pressure by 50 mmHg in conscious, spontaneously hypertensive rats (SHR) (peak effect); IA-Inactive; type: functional, organism-based

Row | Structure (SMILES) | pD2 [1] | Activity [2] | ED50 [3]
1 | CC(=O)Nc1ccc2c(c1)CCCC1CC(=O)NN=C21 (stereo not given) | inactive | 46 | inactive
2 | CC(=O)Nc1ccc2c(c1)CCC1CC(=O)NN=C21 (stereo not given) |  | 100 | 
3 | Nc1ccc2c(c1)CCC1CC(=O)NN=C21 (stereo not given) |  | 73 | 
4 | Nc1ccc2c(c1)CC1CC(=O)NN=C21 (stereo not given) |  | 87 | 
5 | CC(=O)Nc1ccc2c(c1)CC1CC(=O)NN=C21 (stereo not given) |  | 100 | 
6 | Nc1ccc2c(c1)CCCC1CC(=O)NN=C21 (stereo not given) | inactive | 45 | inactive
